Drawing on PubChem BioAssay (NCI), this text covers TGI for 14 compounds.

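Values below derive from 48-hour exposures of cells grown in 96-well plates, with endpoints linearly interpolated between the two concentrations bracketing the appropriate inhibition level. TGI marks complete inhibition of growth.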

Test systems include MALME-3M melanoma; SN12C renal; OVCAR-5 ovarian; UACC-62 melanoma; HCT-116 colon; SK-MEL-2 melanoma; DU-145 prostate; OVCAR-3 ovarian; SW-620 colon; M14 melanoma.
What all share (test): growth of human tumour cells (NCI), 48 h

In the case of `COc1cc2c(cc1OC)C/C(=N\O)c1cc(OC)c(OC)cc1/C=C\2`, the TGI in the assay with MALME-3M melanoma was 9.9 µM; in the assay on SN12C renal, more than 100 µM; in the assay on OVCAR-5 ovarian it was more than 55.3 µM; in the assay with UACC-62 melanoma it was more than 58 µM; in the assay on HCT-116 colon, more than 39.2 µM; in the assay with SK-MEL-2 melanoma it was 44.6 µM. Also, the TGI was more than 64 µM in the assay on DU-145 prostate, 17.3 µM with OVCAR-3 ovarian, more than 90.6 µM with SW-620 colon and 27.2 µM with M14 melanoma.

As for `N#Cc1ccccc1C#C/C=C\C#Cc1ccccn1`, the TGI in the assay with MALME-3M melanoma was 39.6 µM; with SN12C renal it was 47.8 µM; in the assay on OVCAR-5 ovarian, 58.6 µM; in the assay on UACC-62 melanoma, 37 µM; with HCT-116 colon, 24.3 µM; with SK-MEL-2 melanoma, 33.3 µM. Besides, the TGI in the assay on DU-145 prostate stood at 83.5 µM; with OVCAR-3 ovarian it was 19.2 µM; in the assay with SW-620 colon, 31.9 µM; in the assay with M14 melanoma, 28.8 µM.

In the case of `O=C(O)Cn1cnc2c(=O)[nH]c(Nc3ccccc3)nc21`, the TGI in the assay on MALME-3M melanoma, in the assay on SN12C renal, in the assay with OVCAR-5 ovarian, in the assay with UACC-62 melanoma, with HCT-116 colon and with SK-MEL-2 melanoma was more than 100 µM each time. For the same compound, the TGI in the assay with DU-145 prostate, in the assay on OVCAR-3 ovarian, with SW-620 colon and in the assay with M14 melanoma was more than 100 µM in each case.

For the compound `OC[C@H](O)[C@@H](OCc1ccccc1)[C@H](NCc1ccccc1)c1cccs1`, the TGI in the assay on MALME-3M melanoma, in the assay on SN12C renal, in the assay with OVCAR-5 ovarian, in the assay on UACC-62 melanoma, with HCT-116 colon and in the assay with SK-MEL-2 melanoma was more than 100 µM throughout. Further, the TGI with DU-145 prostate, in the assay with OVCAR-3 ovarian, in the assay on SW-620 colon and in the assay on M14 melanoma was more than 100 µM each time.

As to `O=C(N/N=C/c1ccc(O)cc1)NNCCO`, the TGI with MALME-3M melanoma, in the assay with SN12C renal, in the assay with OVCAR-5 ovarian, in the assay on UACC-62 melanoma, in the assay on HCT-116 colon and in the assay on SK-MEL-2 melanoma was more than 100 µM in each case. Further, the TGI in the assay with DU-145 prostate, in the assay on OVCAR-3 ovarian, in the assay with SW-620 colon and in the assay on M14 melanoma was more than 100 µM each time.

In the case of `CCOP(=O)(OCC)C(Cc1cn(S(=O)(=O)c2ccc(C)cc2)cn1)C(=O)O` (centres undefined), the TGI in the assay with MALME-3M melanoma, in the assay on SN12C renal, in the assay on OVCAR-5 ovarian, in the assay with UACC-62 melanoma, in the assay with HCT-116 colon and in the assay with SK-MEL-2 melanoma was more than 100 µM in each case. In addition, the TGI in the assay on DU-145 prostate, in the assay on OVCAR-3 ovarian, with SW-620 colon and with M14 melanoma was more than 100 µM in each case.

Take `CCCCCCCCC/C=C1/CC(CO)(COC(=O)C2CCCCC2)OC1=O` (centres undefined): the TGI with MALME-3M melanoma, in the assay on SN12C renal, in the assay on OVCAR-5 ovarian, in the assay on UACC-62 melanoma, with HCT-116 colon and in the assay on SK-MEL-2 melanoma was more than 100 µM throughout. For the same compound, the TGI in the assay on DU-145 prostate, in the assay on OVCAR-3 ovarian, in the assay with SW-620 colon and with M14 melanoma was more than 100 µM throughout.

As for `CN(C)CC(O)CNC(=O)Nc1ccccc1` (centres undefined), the TGI in the assay on MALME-3M melanoma, with SN12C renal, with OVCAR-5 ovarian, in the assay on UACC-62 melanoma, in the assay with HCT-116 colon and in the assay on SK-MEL-2 melanoma was more than 100 µM in each case. Moreover, the TGI in the assay on DU-145 prostate, in the assay with OVCAR-3 ovarian, in the assay with SW-620 colon and in the assay on M14 melanoma was more than 100 µM in each case.

As for `O=C(O)C(=Cc1ccc(-c2ccc([N+](=O)[O-])cc2)o1)C(=O)O`, the TGI in the assay with MALME-3M melanoma, in the assay with SN12C renal, in the assay with OVCAR-5 ovarian, in the assay with UACC-62 melanoma, in the assay with HCT-116 colon and in the assay on SK-MEL-2 melanoma was more than 100 µM throughout. Also, the TGI in the assay with DU-145 prostate, in the assay on OVCAR-3 ovarian, in the assay with SW-620 colon and with M14 melanoma was more than 100 µM in each case.

With `Cc1ccnc2[nH]c(-c3ccc(Cl)cc3)cc(=O)c12`, the TGI with MALME-3M melanoma, in the assay on SN12C renal, in the assay with OVCAR-5 ovarian, with UACC-62 melanoma, in the assay with HCT-116 colon and in the assay on SK-MEL-2 melanoma was more than 100 µM each time. Moreover, the TGI with DU-145 prostate was more than 100 µM; in the assay on OVCAR-3 ovarian, 99.1 µM; with SW-620 colon, more than 100 µM; in the assay with M14 melanoma, more than 100 µM.

In the case of `CN1C(=O)c2c(c3c4ccccc4n(C)c3c3c2c2ccccc2n3C)C1=O`, the TGI in the assay on MALME-3M melanoma, in the assay with SN12C renal, in the assay with OVCAR-5 ovarian, with UACC-62 melanoma, in the assay with HCT-116 colon and in the assay with SK-MEL-2 melanoma was more than 100 µM each time. The TGI with DU-145 prostate, in the assay with OVCAR-3 ovarian, with SW-620 colon and in the assay with M14 melanoma was more than 100 µM throughout.

Turning to `O=C(NC12CC3CC(CC(C3)C1)C2)n1cnc2c(Cl)ncnc21`, the TGI in the assay on MALME-3M melanoma was more than 100 µM; with SN12C renal it was more than 100 µM; with OVCAR-5 ovarian, more than 100 µM; in the assay on UACC-62 melanoma it was more than 100 µM; in the assay with HCT-116 colon it was more than 100 µM; with SK-MEL-2 melanoma, 80.7 µM. The TGI with DU-145 prostate was 63.9 µM; in the assay with OVCAR-3 ovarian, 51.3 µM; in the assay on SW-620 colon, more than 100 µM; with M14 melanoma, 50.7 µM.

For the compound `C=c1c2ccccc2oc2nc3[nH]c(N)c(C#N)c(N)c3c(=N)c12`, the TGI was 78.7 µM with MALME-3M melanoma; more than 100 µM with SN12C renal; more than 100 µM in the assay with OVCAR-5 ovarian; more than 100 µM in the assay with UACC-62 melanoma; more than 100 µM with HCT-116 colon; 37.8 µM in the assay on SK-MEL-2 melanoma. Further, the TGI is more than 100 µM in the assay with DU-145 prostate, 43.3 µM with OVCAR-3 ovarian, more than 100 µM with SW-620 colon and more than 100 µM in the assay with M14 melanoma.

Regarding `C#CCn1c(=O)c2cc(OC)c(OC)cc2n(CC#C)c1=O`, the TGI with MALME-3M melanoma, in the assay with SN12C renal, with OVCAR-5 ovarian, with HCT-116 colon, in the assay on SK-MEL-2 melanoma and in the assay on DU-145 prostate was more than 10 µM each time. For the same compound, the TGI in the assay with OVCAR-3 ovarian, in the assay with SW-620 colon and in the assay with M14 melanoma was more than 10 µM throughout.
